In assay [1] the target is T1, Iodotyrosine deiodinase 1 [1-1,32-289] (Homo sapiens, UniProt Q6PHW0).
T1 construct: 1-1,32-289
T1 sequence (Q6PHW0 whole entry): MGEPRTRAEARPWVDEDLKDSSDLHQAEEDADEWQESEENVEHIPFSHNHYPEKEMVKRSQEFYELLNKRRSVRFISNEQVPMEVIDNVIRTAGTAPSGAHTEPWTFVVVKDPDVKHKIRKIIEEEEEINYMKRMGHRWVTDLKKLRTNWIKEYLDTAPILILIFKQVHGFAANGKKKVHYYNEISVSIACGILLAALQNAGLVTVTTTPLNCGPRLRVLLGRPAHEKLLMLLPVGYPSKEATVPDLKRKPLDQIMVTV
The assay can be described thus: IYD Binding Assay. How it is done:
(§1) Dissociation constants (Kd) for the ligands of IYD were determined by their ability to quench the fluorescence of the oxidized FMN (FMNox) (λex 450 nm, λem 523 nm) in the active site of IYD as previously described [Hu et al., J. Biol. Chem., 290:590-600; McTamney et al., J. Am. Chem. Soc., 131:14212-14213].

For assay [2], the target named is T2, Iodotyrosine deiodinase [1-228] (Haliscomenobacter hydrossis, UniProt F4KU78).
T2 construct: 1-228
T2 sequence (F4KU78 whole entry): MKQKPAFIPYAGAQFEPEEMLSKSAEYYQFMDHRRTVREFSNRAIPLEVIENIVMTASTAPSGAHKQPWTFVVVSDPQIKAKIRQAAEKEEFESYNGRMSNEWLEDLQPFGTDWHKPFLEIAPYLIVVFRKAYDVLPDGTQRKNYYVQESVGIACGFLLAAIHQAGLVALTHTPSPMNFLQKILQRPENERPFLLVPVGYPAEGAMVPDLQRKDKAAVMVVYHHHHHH
Kind of assay: IYD Binding Assay. As to the method:
as §1

As to `Oc1ccccc1I` [2-Iodophenol (2IP)], the Kd (in general, a measure of binding affinity in units of concentration) in assay [1] stood at 1410 µM; in assay [2], 67 µM.

In assay [2], `Nc1ccc(O)c(I)c1` [4-Amino-2-iodophenol (4A2IP)] gave a Kd of 96 µM.

Turning to `N[C@@H](Cc1ccc(O)c(I)c1)C(=O)O`, the Kd in assay [1] was 0.09 µM; in assay [2] it was 8.2 µM.

`O=C(O)c1ccc(O)c(I)c1` [4-Hydroxy-3-iodobenzoic acid (2IPCOOH)]: in assay [2], the Kd came out at 24.1 µM.

Compound `N#Cc1ccc(O)c(I)c1` [4-Cyano-2-iodophenol (2IPCN)] showed a Kd in assay [2] of 1.44 µM.

Values taken from BindingDB's records for doi:10.1021/acs.biochem.6b01308 (Johns Hopkins University, 2017).
